US20070232601A1, “Vla-4 Inhibitor” (priority 2004, published 2007)
pKi: −log10 of the molar value. Marks after values point to notes of the source that are not given here.

Columns and labels:
[1] = molecular target: T1, hα4 and β1 integrins (VLA-4) (Homo sapiens, UniProt P05556+P13612); assay: In vitro evaluation: inhibition of binding of CHO cells expressing hα4 and β1 integrins to Eu3+-hVCAM-1 D1D7-IgG; settings: ligand Eu3+-hVCAM-1 D1D7-IgG 2 nM, Ki calculated from IC50
T1 construct: expressed in transfected cells; host or cells: CHO cells
T1 sequence (P13612 34-1032): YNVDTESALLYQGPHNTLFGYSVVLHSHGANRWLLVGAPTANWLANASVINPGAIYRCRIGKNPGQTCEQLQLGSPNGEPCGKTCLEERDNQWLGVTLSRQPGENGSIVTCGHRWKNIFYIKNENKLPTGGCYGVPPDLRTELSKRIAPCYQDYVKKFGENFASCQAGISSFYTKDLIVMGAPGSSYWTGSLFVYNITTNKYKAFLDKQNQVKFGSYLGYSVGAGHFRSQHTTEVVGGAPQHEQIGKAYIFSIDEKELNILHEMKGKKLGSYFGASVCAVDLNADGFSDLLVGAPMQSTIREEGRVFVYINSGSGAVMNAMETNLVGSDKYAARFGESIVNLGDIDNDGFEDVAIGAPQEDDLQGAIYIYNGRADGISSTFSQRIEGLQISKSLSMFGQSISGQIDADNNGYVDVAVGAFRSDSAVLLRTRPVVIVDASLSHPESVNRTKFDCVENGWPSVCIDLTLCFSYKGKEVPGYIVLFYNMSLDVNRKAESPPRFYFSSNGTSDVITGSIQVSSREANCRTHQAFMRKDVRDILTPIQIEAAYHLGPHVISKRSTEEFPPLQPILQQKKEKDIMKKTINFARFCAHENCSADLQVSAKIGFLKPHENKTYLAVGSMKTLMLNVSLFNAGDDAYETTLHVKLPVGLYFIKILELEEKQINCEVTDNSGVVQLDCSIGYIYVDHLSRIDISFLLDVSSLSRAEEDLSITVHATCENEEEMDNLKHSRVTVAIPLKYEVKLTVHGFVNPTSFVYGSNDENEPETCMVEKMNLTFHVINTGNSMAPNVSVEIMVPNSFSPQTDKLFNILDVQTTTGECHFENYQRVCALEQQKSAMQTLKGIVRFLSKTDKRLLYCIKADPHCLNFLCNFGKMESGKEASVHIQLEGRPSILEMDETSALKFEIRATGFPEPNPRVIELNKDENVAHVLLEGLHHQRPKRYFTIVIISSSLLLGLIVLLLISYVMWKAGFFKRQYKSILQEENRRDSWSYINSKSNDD
T1 sequence (P05556 21-798): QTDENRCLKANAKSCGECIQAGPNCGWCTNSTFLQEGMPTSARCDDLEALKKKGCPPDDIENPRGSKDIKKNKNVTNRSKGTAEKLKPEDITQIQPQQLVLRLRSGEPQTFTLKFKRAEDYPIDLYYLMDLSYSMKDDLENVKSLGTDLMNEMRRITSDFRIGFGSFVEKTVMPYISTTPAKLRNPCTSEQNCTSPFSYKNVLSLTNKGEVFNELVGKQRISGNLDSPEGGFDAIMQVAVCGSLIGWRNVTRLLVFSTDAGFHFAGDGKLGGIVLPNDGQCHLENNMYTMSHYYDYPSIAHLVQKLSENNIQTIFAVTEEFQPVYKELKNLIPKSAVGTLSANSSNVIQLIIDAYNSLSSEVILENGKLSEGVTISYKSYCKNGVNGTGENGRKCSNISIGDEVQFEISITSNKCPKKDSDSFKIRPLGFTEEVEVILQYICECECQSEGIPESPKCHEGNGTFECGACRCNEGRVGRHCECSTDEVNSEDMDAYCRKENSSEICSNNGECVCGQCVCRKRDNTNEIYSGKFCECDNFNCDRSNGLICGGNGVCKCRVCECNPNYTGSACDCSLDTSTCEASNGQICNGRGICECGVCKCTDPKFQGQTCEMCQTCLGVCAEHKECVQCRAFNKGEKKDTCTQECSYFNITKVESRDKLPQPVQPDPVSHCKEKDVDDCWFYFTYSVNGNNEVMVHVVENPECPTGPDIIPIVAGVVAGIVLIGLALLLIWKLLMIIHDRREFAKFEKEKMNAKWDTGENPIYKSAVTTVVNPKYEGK
Summary of the method: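 CHO cells stably expressing hα4β1 were cultured 2 days, then incubated 1 h at room temperature with Eu3+-hVCAM-1 D1D7-IgG (added as 2 nM solution) and compound in HEPES pH 7.5 with Ca2+, Mg2+ and 4 mM Mn2+, ± 6% human serum albumin. Bound europium was read by time-resolved fluorescence; IC50 was converted to Ki using Scatchard-derived Kd.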

[2] = Dispersibility test in Japanese Pharmacopoeia First and Second Solution; assay type: physicochemical; settings: for Dispersibility in Japanese Pharmacopoeia First Solution: JP1, pH 1.2; for Dispersibility in Japanese Pharmacopoeia Second Solution: JP2, pH 6.8
Protocol: Dispersibility of a test substance in Japanese Pharmacopoeia First Solution (JP1, pH 1.2) and Japanese Pharmacopoeia Second Solution (JP2, pH 6.8) was evaluated.

[3] = Intracorporeal kinetics and oral absorbing property test (dog, oral cassette); assay type: in vivo; settings: orally administered, 0.5 mg/kg cassette; for AUC (total area under the plasma concentration versus time curve): LC/MS/MS
Protocol: Intracorporeal Kinetics and Oral Absorbing Property Test: A pharmacokinetic parameter when a test substance was orally administered to a dog by 0.5 mg/kg cassette was as follows.

[4] = test system: eosinophils in BALF; assay: Ascaris active sensitization-induced mouse eosinophil infiltration test; assay type: in vivo; settings: test substance orally administered two times per day, BALF 48 hours after inducement; for Inhibition rate: vs Ascaris-induced group
Protocol: Ascaris (Ascaris suum Antigen in pigs) active sensitization-induced mouse eosinophil infiltration test:
It has been reported that cell infiltration of eosinophil is induced by inducing Ascaris active sensitization {Int. Arch. Immunol., 108, 11-18, (1995)}. In this evaluation method, a test compound was evaluated. A test substance was orally administered two times per day, the total count of cells and the count of eosinophils in BALF 48 hours after inducement were calculated, and the effect was determined by comparing with a non-test substance administered group.
Results of mouse eosinophil infiltration test ^1 anti-VLA-4 antibody, two times/1 day s.c. administration; **p<0.01: vs D, cont by student's t-test

| Cltot (apparent plasma clearance) [3] | AUC (total area under the plasma concentration versus time curve) [3] | SMILES | pKi [1] | Dispersibility in Japanese Pharmacopoeia First Solution [2] | Dispersibility in Japanese Pharmacopoeia Second Solution [2] | Average total eosinophil count [4] | Inhibition rate [4] |
| --- | --- | --- | --- | --- | --- | --- | --- |
| 0.81 mL/min/kg | 10690 ng·h/mL | CO[C@H]1C[C@@H](c2ncc(CCC(=O)O)s2)N(C(=O)Cc2cc(Cl)c(NC(=O)c3cn(C)c4ccccc34)cc2F)C1 [Example 2, 3-[2-[1-[5-Chloro-2-fluoro-4-(1-methyl-3-indolylcarbonyl)aminophenylacetyl]-(4S)-methoxy-(2S)-pyrrolidinyl]-5-thiazolyl]propionic acid] | 9.07 | 97 µg/mL | >2000 µg/mL |  |  |
| 0.42 mL/min/kg | 19770 ng·h/mL | Cn1cc(C(=O)Nc2cc(Cl)c(CC(=O)N3[C@H](c4ncc(CCC(=O)O)s4)C[C@@H]4CCCC[C@@H]43)cc2Cl)c2ccccc21 [Example 60, 3-[2-[1-[2,5-Dichloro-4-(1-methyl-3-indolylcarbonyl)aminophenylacetyl]-(2S)-octahydroindolyl]-5-thiazolyl]propionic acid] | 8.07 |  |  |  |  |
| 0.57 mL/min/kg | 14935 ng·h/mL | CC(C)O[C@H]1C[C@@H](c2ncc(CCC(=O)O)s2)N(C(=O)Cc2cc(Cl)c(NC(=O)c3csc4ccccc34)cc2F)C1 [Example 36, 3-[2-[1-[4-[(3-Benzo[b]thienylycarbonyl)amino]-5-chloro-2-fluorophenylacetyl]-4S-isopropoxy-(2S)-pyrrolidinyl]-5-thiazolyl]propionic acid] | 8.77 |  |  |  |  |
| 0.59 mL/min/kg | 14860 ng·h/mL | COC[C@@H]1CC[C@@H](c2ncc(CCC(=O)O)s2)N1C(=O)Cc1ccc2nc(Nc3cc(F)ccc3C)oc2c1 [Example 58] | 8.17 |  |  |  |  |
|  |  | O=C(O)CCc1cnc([C@@H]2C[C@H](N3CCC(F)(F)CC3)CN2C(=O)Cc2cc(Cl)c(NC(=O)c3coc4ccccc34)cc2Cl)s1 [Example 78, 3-[2-[1-[4-(3-Benzo[b]furanylcarbonylamino)-2,5-dichlorophenylacetyl]-(4S)-[1-(4,4-difluoro)piperidinyl]-(2S)-pyrrolidinyl]-5-thiazolyl]propionic acid] | 8.92 | 260 µg/mL | 230 µg/mL |  |  |
|  |  | O=C(O)CCc1cnc([C@@H]2C[C@H](N3CCN(CC(F)(F)F)CC3)CN2C(=O)Cc2cc(Cl)c(NC(=O)c3csc4ccccc34)cc2Cl)s1 [Example 82] | 8.89 | 96 µg/mL | 320 µg/mL |  |  |
| 1.23 mL/min/kg | 7040 ng·h/mL | CO[C@H]1C[C@@H](c2ncc(CCC(=O)O)s2)N(C(=O)Cc2cc(Cl)c(NC(=O)c3cn(C)c4ccccc34)cc2Cl)C1 [Example 1, 3-[2-[1-[2,5-Dichloro-4-(1-methyl-3-indolylcarbonylamino)phenylacetyl]-(4S)-methoxy-(2S)-pyrrolidinyl]-5-thiazolyl]propionic acid] | 8.89 | 33 µg/mL | >2000 µg/mL | 1.52 ×10^5 | 57** % |
| 0.31 mL/min/kg | 27620 ng·h/mL | COC[C@@H]1CC[C@@H](c2ncc(CCC(=O)O)s2)N1C(=O)Cc1ccc2nc(Nc3cc(F)ccc3C)oc2c1F [Example 57, 3-[2-[1-[7-Fluoro-2-(5-fluoro-2-methylphenyl)-amino-6-benzoxazolylacetyl]-(5S)-methoxymethyl-(2S)-pyrrolidinyl]-5-thiazolyl]propionic acid] | 8.36 |  |  |  |  |
|  |  | C[C@@H]1CN([C@H]2C[C@@H](c3ncc(CCC(=O)O)s3)N(C(=O)Cc3cc(Cl)c(NC(=O)c4csc5ccccc45)cc3F)C2)C[C@H](C)O1 [Example 87, 3-[2-[1-[4-(3-Benzo[b]thiophenylcarbonylamino)-5-chloro-2-fluorophenylacetyl]-(4S)-[4-(cis-2,6-dimethyl)morpholinyl]-(2S)-pyrrolidinyl]-5-thiazolyl]propionic acid] | 9.00 | 1200 µg/mL | 1300 µg/mL |  |  |
|  |  | CO[C@H]1C[C@@H](c2ncc(CCC(=O)O)s2)N(C(=O)Cc2cc(Cl)c(Nc3nc4cc(F)ccc4s3)cc2F)C1 [Example 113, 3-[2-[1-[4-(5-Fluoro-2-benzothiazolyl)amino-5-chloro-2-fluorophenyl]acetyl-(4S)-methoxy-(2S)-pyrrolidinyl]-5-thiazolyl]propionic acid] | 8.30 | 180 µg/mL | 770 µg/mL |  |  |
|  |  | Cn1cc(C(=O)Nc2cc(Cl)c(CC(=O)N3C[C@@H](N4CCN(CC(F)(F)F)CC4)C[C@H]3c3ncc(CCC(=O)O)s3)cc2Cl)c2ccccc21 [Example 80, 3-[2-[1-[2,5-Dichloro-4-(1-methyl-3-indolylcarbonylamino)phenylacetyl]-(4S)-[1-(4-(2,2,2-trifluoro)ethyl)piperazinyl]-(2S)-pyrrolidinyl]-5-thiazolyl]propionic acid] | 8.70 | 110 µg/mL | 730 µg/mL |  |  |
| 0.82 mL/min/kg | 10240 ng·h/mL | CO[C@H]1C[C@@H](c2ncc(CCC(=O)O)s2)N(C(=O)Cc2cc(Cl)c(NC(=O)c3csc4ccccc34)cc2F)C1 [Example 4, 3-[2-[1-[4-[(3-Benzo[b]thienylcarbonyl)amino]-5-chloro-2-fluorophenylacetyl]-(4S)-methoxy-(2S)-pyrrolidinyl]-5-thiazolyl]propionic acid] | 9.14 |  |  |  |  |
|  |  | CO[C@H]1C[C@@H](c2ncc(CCC(=O)O)s2)N(C(=O)Cc2cc(Cl)c(Nc3nc4ccccc4s3)cc2Cl)C1 [Example 112, 3-[2-[1-[4-(2-Benzothiazolyl)amino-2,5-dichlorophenyl]acetyl-(4S)-methoxy-(2S)-pyrrolidinyl]-5-thiazolyl]propionic acid] | 8.72 | 420 µg/mL | 770 µg/mL |  |  |
|  |  | O=C(O)CCc1cnc([C@@H]2C[C@H](N3CCC(F)(F)CC3)CN2C(=O)Cc2cc(Cl)c(NC(=O)c3coc4ccccc34)cc2F)s1 [Example 77, 3-[2-[1-[4-(3-Benzo[b]furanylcarbonylamino)-5-chloro-2-fluorophenylacetyl]-(4S)-[1-(4,4-difluoro)piperidinyl]-(2S)-pyrrolidinyl]-5-thiazolyl]propionic acid] | 9.14 | 430 µg/mL | 380 µg/mL |  |  |
|  |  | Cn1cc(C(=O)Nc2cc(Cl)c(CC(=O)N3C[C@@H](N4CCCCC4)C[C@H]3c3ncc(CCC(=O)O)s3)cc2Cl)c2ccccc21 [Example 46, 3-[2-[1-[2,5-Dichloro-4-(1-methyl-3-indolylcarbonylamino)phenylacetyl]-(4S=)=1-piperidinyl-(2S)-pyrrolidinyl]-5-thiazolyl]propionic acid] | 8.80 | >2000 µg/mL | 570 µg/mL | 1.44 ×10^5 | 53** % |
|  |  | O=C(O)CCc1cnc([C@@H]2[C@@H](O)CCN2C(=O)Cc2ccc(Nc3nc4ccccc4s3)c(Cl)c2)s1 [Example 119, 3-[2-[1-[4-(2-Benzothiazolyl)amino-3-chlorophenyl]acetyl-(3S)-hydroxy-(2S)-pyrrolidinyl]-5-thiazolyl]propionic acid] | 8.21 | 730 µg/mL | 730 µg/mL |  |  |

| SMILES | Cltot (apparent plasma clearance) [3] | AUC (total area under the plasma concentration versus time curve) [3] | pKi [1] | Dispersibility in Japanese Pharmacopoeia First Solution [2] | Dispersibility in Japanese Pharmacopoeia Second Solution [2] | Average total eosinophil count [4] | Inhibition rate [4] |
| --- | --- | --- | --- | --- | --- | --- | --- |
| CCOC[C@@H]1CC[C@@H](c2ncc(CCC(=O)O)s2)N1C(=O)Cc1ccc2nc(Nc3cc(F)ccc3C)oc2c1F [Example 51, 3-[2-[(5S)-ethoxymethyl-1-[7-fluoro-2-(5-fluoro-2-methylphenyl)amino-6-benzoxazolylacetyl]-(2S)-pyrrolidinyl]-5-thiazolyl]propionic acid] | 0.26 mL/min/kg | 32310 ng·h/mL | 8.34 | 88 µg/mL | >800 µg/mL |  |  |
